{
  "source": "PubChem BioAssay (NCI)",
  "experiment_in_all_cases": "inhibition of tumour cell growth, NCI panel, 48 h",
  "key": {"[1]": {"system": "MOLT-4 leukemia"}, "[2]": {"system": "MDA-MB-435"}, "[3]": {"system": "HCC-2998 colon"}, "[4]": {"system": "OVCAR-5 ovarian"}, "[5]": {"system": "HCT-116 colon"}, "[6]": {"system": "BT-549 breast"}, "[7]": {"system": "SF-268 CNS"}, "[8]": {"system": "TK-10 renal"}, "[9]": {"system": "MCF7 breast"}, "[10]": {"system": "OVCAR-8 ovarian"}, "[11]": {"system": "SK-MEL-2 melanoma"}, "[12]": {"system": "HOP-92 NSCLC"}, "[13]": {"system": "HL-60(TB) leukemia"}, "[14]": {"system": "EKVX NSCLC"}, "[15]": {"system": "MDA-MB-231 breast"}, "[16]": {"system": "ACHN renal"}, "[17]": {"system": "A549 NSCLC"}, "[18]": {"system": "MALME-3M melanoma"}, "[19]": {"system": "UACC-62 melanoma"}, "[20]": {"system": "LOX IMVI melanoma"}, "[21]": {"system": "KM12 colon"}, "[22]": {"system": "A498 renal"}, "[23]": {"system": "SF-539 CNS"}, "[24]": {"system": "U251 CNS"}, "[25]": {"system": "786-0 renal"}, "[26]": {"system": "T-47D breast"}, "[27]": {"system": "SK-OV-3 ovarian"}, "[28]": {"system": "SN12C renal"}, "[29]": {"system": "PC-3 prostate"}},
  "note": "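Each compound was tested at five concentrations against cells in 96-well plates for 48 hours. GI50: concentration for 50% inhibition of growth. TGI is the concentration that stops growth completely.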",
  "data": [
    {"smiles": "Cc1cc(C2(c3cc(C)c(OCC(O)CNc4c(C)n(C)n(-c5ccccc5)c4=O)cc3C(C)C)OC(=O)c3ccccc32)c(C(C)C)cc1OCC(O)CNc1c(C)n(C)n(-c2ccccc2)c1=O", "note": "(stereo not drawn)", "values": [
      {"measurement": "GI50", "setting": "[1]", "result": 6.78, "unit": "µM"},
      {"measurement": "TGI", "setting": "[1]", "result": "> 100", "unit": "µM"},
      {"measurement": "GI50", "setting": "[2]", "result": 14.7, "unit": "µM"},
      {"measurement": "TGI", "setting": "[2]", "result": 38.3, "unit": "µM"},
      {"measurement": "GI50", "setting": "[3]", "result": 17.1, "unit": "µM"},
      {"measurement": "TGI", "setting": "[3]", "result": 49.6, "unit": "µM"},
      {"measurement": "GI50", "setting": "[4]", "result": 17.7, "unit": "µM"},
      {"measurement": "TGI", "setting": "[4]", "result": 56.3, "unit": "µM"},
      {"measurement": "GI50", "setting": "[5]", "result": 16.9, "unit": "µM"},
      {"measurement": "TGI", "setting": "[5]", "result": 46.8, "unit": "µM"},
      {"measurement": "GI50", "setting": "[6]", "result": 23.3, "unit": "µM"},
      {"measurement": "TGI", "setting": "[6]", "result": "> 100", "unit": "µM"},
      {"measurement": "GI50", "setting": "[7]", "result": 18.1, "unit": "µM"},
      {"measurement": "TGI", "setting": "[7]", "result": "> 100", "unit": "µM"},
      {"measurement": "GI50", "setting": "[8]", "result": 49.3, "unit": "µM"},
      {"measurement": "TGI", "setting": "[8]", "result": "> 100", "unit": "µM"},
      {"measurement": "GI50", "setting": "[9]", "result": 14, "unit": "µM"},
      {"measurement": "TGI", "setting": "[9]", "result": 39.6, "unit": "µM"},
      {"measurement": "GI50", "setting": "[10]", "result": 27, "unit": "µM"},
      {"measurement": "TGI", "setting": "[10]", "result": "> 100", "unit": "µM"},
      {"measurement": "GI50", "setting": "[11]", "result": 17.5, "unit": "µM"},
      {"measurement": "TGI", "setting": "[11]", "result": 40.8, "unit": "µM"},
      {"measurement": "GI50", "setting": "[12]", "result": 4.49, "unit": "µM"},
      {"measurement": "TGI", "setting": "[12]", "result": 49.8, "unit": "µM"},
      {"measurement": "GI50", "setting": "[13]", "result": 14.2, "unit": "µM"},
      {"measurement": "TGI", "setting": "[13]", "result": 79.7, "unit": "µM"},
      {"measurement": "GI50", "setting": "[14]", "result": 14.7, "unit": "µM"},
      {"measurement": "TGI", "setting": "[14]", "result": "> 100", "unit": "µM"},
      {"measurement": "GI50", "setting": "[15]", "result": 10.1, "unit": "µM"},
      {"measurement": "TGI", "setting": "[15]", "result": 27.2, "unit": "µM"},
      {"measurement": "GI50", "setting": "[16]", "result": 23.6, "unit": "µM"},
      {"measurement": "TGI", "setting": "[16]", "result": "> 100", "unit": "µM"},
      {"measurement": "GI50", "setting": "[17]", "result": 23.1, "unit": "µM"},
      {"measurement": "TGI", "setting": "[17]", "result": "> 100", "unit": "µM"},
      {"measurement": "GI50", "setting": "[18]", "result": 20, "unit": "µM"},
      {"measurement": "TGI", "setting": "[18]", "result": 52.9, "unit": "µM"},
      {"measurement": "GI50", "setting": "[19]", "result": 9.74, "unit": "µM"},
      {"measurement": "TGI", "setting": "[19]", "result": 24.4, "unit": "µM"},
      {"measurement": "GI50", "setting": "[20]", "result": 14.4, "unit": "µM"},
      {"measurement": "TGI", "setting": "[20]", "result": 30.3, "unit": "µM"},
      {"measurement": "GI50", "setting": "[21]", "result": 25.8, "unit": "µM"},
      {"measurement": "TGI", "setting": "[21]", "result": "> 100", "unit": "µM"},
      {"measurement": "GI50", "setting": "[22]", "result": 29.1, "unit": "µM"},
      {"measurement": "TGI", "setting": "[22]", "result": "> 100", "unit": "µM"},
      {"measurement": "GI50", "setting": "[23]", "result": 18.6, "unit": "µM"},
      {"measurement": "TGI", "setting": "[23]", "result": 52.9, "unit": "µM"},
      {"measurement": "GI50", "setting": "[24]", "result": 25.9, "unit": "µM"},
      {"measurement": "TGI", "setting": "[24]", "result": 99.6, "unit": "µM"},
      {"measurement": "GI50", "setting": "[25]", "result": 19.2, "unit": "µM"},
      {"measurement": "TGI", "setting": "[25]", "result": 76.5, "unit": "µM"},
      {"measurement": "GI50", "setting": "[26]", "result": 18.5, "unit": "µM"},
      {"measurement": "TGI", "setting": "[26]", "result": "> 100", "unit": "µM"},
      {"measurement": "GI50", "setting": "[27]", "result": 49.2, "unit": "µM"},
      {"measurement": "TGI", "setting": "[27]", "result": "> 100", "unit": "µM"},
      {"measurement": "GI50", "setting": "[28]", "result": 26.1, "unit": "µM"},
      {"measurement": "TGI", "setting": "[28]", "result": "> 100", "unit": "µM"},
      {"measurement": "GI50", "setting": "[29]", "result": 5.72, "unit": "µM"},
      {"measurement": "TGI", "setting": "[29]", "result": "> 100", "unit": "µM"}
    ]}
  ]
}
